Experimental data reported in patent US20030217372A1, “Methods of using alpha 1b-adrenergic receptors” (priority 2002, published 2003).

How the values were obtained:
Assay type in all cases: in vivo
WT and α1bAR-KO mice [1] = experiment: Locomotor activity after systemic D-amphetamine during microdialysis experiments; conditions: 120 minutes after injection
Description: (§1) Mice were introduced in a circular corridor (4.5 cm width, 17 cm external diameter) crossed by four infrared beams (1.5 cm above the base) placed at every 90° (Imetronic, Pessac, France). The locomotor activity was counted when animals interrupted two successive beams and, thus, had traveled ¼ of the circular corridor. In each session, the spontaneous activity was recorded for 90 minutes, before mice received either saline or drugs. Their activity was recorded for an additional 60 minutes or 120 minutes period. The first session was a session of habituation to the experimental procedure during which animals received saline (˜3 ml/kg, i.p.). The locomotor response to a drug administration was measured on the following day. Tests were performed between 12:00 and 6:00 p.m. in stable conditions of temperature and humidity.
Results presented are means±S.E.M of data obtained with 5 to 9 animals. Statistical analysis was performed using Graph Pad Prism 3.0 software, (San Diego, Calif.). Data from microdialysis experiments were expressed as a percentage of the respective mean basal value to compensate for inter-subject differences. […] LogEC50's were compared after fitting curves with a Student's t-test. Pharmacological treatments correspond to independent groups of animals. Significant differences were set at p<0.05.

C57BL6/J mice = experiment: Local perfusion (reverse dialysis) of D-amphetamine in the nucleus accumbens, mice
Description: Dialysate samples were completed to 30 μl with the mobile phase and placed into a refrigerated automatic injector (Triathlon, Spark Holland, Emmen, The Netherlands). Twenty five μl of the sample were injected every 15 minutes through a rheodyne valve in the mobile phase circuit. High-performance liquid chromatography was performed with a reverse-phase column (80×4.6 mm, 3 μM particle size, HR-80, ESA INC., Chelmsford, Mass.). Mobile phase (NaH2PO4 75 mM, EDTA 20 μM, octane sulfonic acid 2.75 mM, triethylamine 0.7 mM, acetonitrile 6%, methanol 6%, and pH 5.2) was delivered at 0.7 ml/min by an ESA-580 pump. […]

WT and α1bAR-KO mice [2] = experiment: Microdialysis: extracellular DA levels in the nucleus accumbens after systemic D-amphetamine
Description: Mice were anaesthetised with sodium pentobarbital (60 mg/kg; Sanofi Santé Animale, France) and placed in a stereotaxic frame (Kopf instruments). The head was positioned by means of a mouse nose clamp adaptator (Kopf model 922) supplemented by rat ear bars placed lightly in the external auditory meatus. A unilateral permanent cannula (CMA/7 guide cannula, Microdialysis AB, Sweden) was implanted into the nucleus accumbens and was secured on the skull with screw and dental cement. The coordinates for the guide cannula tip were antero-posterior (AP): +1.3 relative to bregma, medio-lateral (ML): +0.8, and dorso-ventral (DV): −2,4 mm from dura (Paxinos and Franklin, The mouse brain in stereotaxic coordinates, Academic Press 2001).
The day of the experiment, the microdialysis probe was inserted (CMA/7, Membrane length 2 mm and diameter 0.24 mm, cut-off: 6000 Da, Microdialysis AB, Sweden, for mice or CMA/11 with identical probe characteristics for rats). Artificial CSF (in mM: NaCl: 147; KCl: 3.5; CaCl2: 1; MgCl2: 1.2; NaH2PO4: 1; NaHCO3: 25, pH=7.6) was perfused with a CMA100 microinjection pump through the probe at a rate of 1 μl/min (2 μl/min for rats) via FEP catheter (internal diameter 0.12 mm for mice) or polyethylene catheter (internal diameter 0.3 mm for rats) connected to a fluid swivel. Adequate steady state of DA levels in perfusate samples was reached 2 hours and 20 minutes after probe insertion for mice and rats, and samples were collected in 300 μl vials placed into a refrigerated computer-controlled fraction collector (CMA/170). Samples (20 μl every 20-minutes for mice and 10 μl every 5 minutes for rats) were collected during 100 minutes and 30 minutes for mice and rats, respectively, to determine basal extracellular DA values.
Dialysate samples were completed to 30 μl with the mobile phase and placed into a refrigerated automatic injector (Triathlon, Spark Holland, Emmen, The Netherlands). Twenty five μl of the sample were injected every 15 minutes through a rheodyne valve in the mobile phase circuit. High-performance liquid chromatography was performed with a reverse-phase column (80×4.6 mm, […] particle size, HR-80, ESA INC., Chelmsford, Mass.). Mobile phase (NaH2PO4 75 mM, EDTA 20 μM, octane sulfonic acid 2.75 mM, triethylamine 0.7 mM, acetonitrile 6%, methanol 6%, and pH 5.2) was delivered at 0.7 ml/min by an ESA-580 pump. Electrochemical detection was performed with an ESA coulometric detector (Coulochem II 5100A, with a 5014B analytical cell; Eurosep, Cergy, France). […]
(§2) Results presented are means±S.E.M of data obtained with 5 to 9 animals. […] Data from microdialysis experiments were expressed as a percentage of the respective mean basal value to compensate for inter-subject differences. […]

WT and α1b-AR KO mice [3] = experiment: Locomotor sensitization induced by repeated drug administration
Description: Animals spent 90 minutes in the experimental apparatus, received a saline injection and were replaced in the apparatus for 60 minutes. […] Four similar sessions took place every other day. The sixth session took place after a 10-day withdrawal. Locomotor responses measured during the first hour following each injection are presented in function of the number of injections and slope values. N=6 to 15 animals per group.
N=6 to 12 animals per group. […] FIG. 6B represents the time course of the locomotor responses measured every 5 minutes.
as §1
Data were analyzed with Student's t-test or analysis of variance. For behavioral sensitization experiments, correlation between the number of drug injections and the amplitude of the locomotor responses was analyzed with linear regression and the influence of genotype on this correlation with an analysis of covariance. Genotype and prazosin treatments were between-subjects factors. […] Differences were considered significant when p<0.05.
The rate of sensitization was evaluated by determining the slope of the “number of injections/response” curve (FIG. 5).

WT and α1b-AR KO mice [4] = experiment: Locomotor activity in circular corridor after acute drug injection; conditions: for locomotor activity: i.p., different doses
Description: FIG. 2 is a series of dose response graphs that depicts the results of locomotor response to novelty, saline, scopolamine and chloro-APB experiments in WT and α1b-AR KO mice. […] Animals were placed in the experimental apparatus for 90 minutes, received a saline injection and were replaced in the apparatus for 60 minutes. On the following day, animals were placed in the experimental apparatus for 90 minutes, they received an intraperitoneal injection of either saline or scopolamine (1 mg/kg) and their locomotor response was measured every 5 minutes for 60 minutes. FIG. 2D represents the results of locomotor response to chloro-APB; animals were placed in the experimental apparatus for 90 minutes, received a saline injection and were replaced in the apparatus for 60 minutes. On the following days, animals were placed in the experimental apparatus for 90 minutes, they received an intraperitoneal injection of chioro-APB and their locomotor response was measured every 5 minutes for 60 minutes. Several doses of chloro-APB were tested on consecutive days in a random order.
Independent groups of animals were used for each treatment to avoid eventual behavioral sensitization (N=6-16 per group).
as §1

Sprague-Dawley rats = experiment: Local perfusion (reverse dialysis) of D-amphetamine in the nucleus accumbens, rats; conditions: read-out: EC50 of DA release (extracellular DA levels)
Description: Extracellular DA levels are expressed in percent of basal DA values (3.50±0.021 and 4.71±0.015 pg DA per 20 minutes for mice and rats, respectively).
Rats were anesthetised with sodium pentobarbital (60 mg/kg; Sanofi Santé Animale, France). A unilateral permanent cannula (CMA/11 guide cannula, Microdialysis AB, Sweden) was implanted into the nucleus accumbens. The coordinates for the guide cannula tip were antero-posterior (AP): +1.7 relative to bregma, medio-lateral (ML): +1.1, and dorso-ventral (DV): −5.7 mm from dura (Paxinos and Watson, Ann. Rev. Pharmacol. Toxicol. 32:63(−77, 1986). After surgery, animals were placed in individual plastic cages and allowed to recover for at least 4 days.
The day of the experiment, the microdialysis probe was inserted (CMA/7, Membrane length 2 mm and diameter 0.24 mm, cut-off: 6000 Da, Microdialysis AB, Sweden, for mice or CMA/11 with identical probe characteristics for rats). […]
as §2

[5] = α1bAR-KO mice, D-amphetamine 3 mg/kg

C[C@H](N)Cc1ccccc1.C[C@H](N)Cc1ccccc1.O=S(=O)(O)O [D-amphetamine, D-amphetamine sulfate]
locomotor hyperactivity (WT and α1bAR-KO mice [1]; WT mice, D-amphetamine 3 mg/kg): 1352±389
locomotor hyperactivity (WT and α1bAR-KO mice [1]; WT mice, D-amphetamine 6 mg/kg): 2758±199
locomotor hyperactivity (WT and α1bAR-KO mice [1]; [5]): 219±62
locomotor hyperactivity (WT and α1bAR-KO mice [1]; α1bAR-KO mice, D-amphetamine 6 mg/kg): 734±184
DA release in WT mice lower than previously found in rats (C57BL6/J mice; 3 μM D-amphetamine, local perfusion in nucleus accumbens, WT mice vs rats (Darracq et al.)): more than 5 fold
EC50 (C57BL6/J mice; C57BL6/J mice, local perfusion in nucleus accumbens, read-out: EC50 of DA release (extracellular DA levels)): 15.6 ± 1.1 µM
locomotor hyperactivity on local perfusion (C57BL6/J mice; mice nucleus accumbens, up to 100 μM): did not induce any locomotor hyperactivity
extracellular DA levels in the nucleus accumbens (WT and α1bAR-KO mice [2]; WT mice, D-amphetamine 3 mg/kg i.p.): enhanced extracellular DA levels
extracellular DA levels in the nucleus accumbens (WT and α1bAR-KO mice [2]; WT mice, D-amphetamine 6 mg/kg i.p.): enhanced extracellular DA levels
extracellular DA levels in the nucleus accumbens (WT and α1bAR-KO mice [2]; [5]): did not modify basal extracellular DA levels
mean increase in extracellular DA levels in the nucleus accumbens (WT and α1bAR-KO mice [2]; α1bAR-KO mice, D-amphetamine 6 mg/kg, vs basal): +25%
rate of sensitization: slope of the number of injections/response curve (WT and α1b-AR KO mice [3]; WT mice, D-amphetamine 1 mg/kg): 179.8±69.1
rate of sensitization: slope of the number of injections/response curve (WT and α1b-AR KO mice [3]; WT mice, D-amphetamine 2 mg/kg): 265+71
rate of sensitization: slope of the number of injections/response curve (WT and α1b-AR KO mice [3]; α1b-AR KO mice, D-amphetamine 1 mg/kg): 33.4±17.7
rate of sensitization: slope of the number of injections/response curve (WT and α1b-AR KO mice [3]; α1b-AR KO mice, D-amphetamine 2 mg/kg): 104.4±31
amplitude of locomotor response, α1b-AR KO vs WT mice (WT and α1b-AR KO mice [4]; D-amphetamine 2 and 3 mg/kg, cocaine and morphine independent of dose): significantly lower
locomotor activity (WT and α1b-AR KO mice [4]; WT mice): dose-dependent stimulation of locomotor activity
locomotor activity (WT and α1b-AR KO mice [4]; α1b-AR KO mice): also increased locomotor activity
EC50 (Sprague-Dawley rats): 11.8 ± 1.3 µM
